{"source": "patent US20200246432A1", "about": "“NITRIC OXIDE- AND FAS LIGAND- ELUTING COMPOSITIONS AND DEVICES AND METHODS OF TREATMENT USING SAME” (YALE UNIVERSITY, priority 2017, published 2020)", "format_in_all_cases": "cell-based", "key": {"pig aortic SMCs": {"system": "pig aortic SMCs", "test": "SMC apoptosis/killing, TUNEL staining, pig aortic SMCs", "details": "DetaNONOate alone, up to 0.2 mM", "procedure": "(§1) FIG. 3 is a set of graphs illustrating the finding that 48 hours of treatment with varying concentrations of human FasL and DetaNONOate (NO donor) increased apoptosis in human (left panel) and pig (right panel) aortic SMCs in a synergistic way.\n(§2) Addition of FasL and NO donor DetaNONOate increased human and pig aortic SMC apoptosis in a synergistic fashion (FIG. 3). DetaNONOate alone, up to 0.2 mM concentration, led to minimal (<15%) death of human or porcine SMCs."}, "human aortic SMCs [1]": {"system": "human aortic SMCs", "test": "SMC apoptosis/killing, TUNEL staining, human aortic SMCs", "details": "DetaNONOate alone, up to 0.2 mM", "procedure": "as §1, §2"}, "human aortic SMCs [2]": {"system": "human aortic SMCs", "test": "Fas receptor expression on cultured human aortic SMCs after NO donor treatment (staining)", "details": "0.1 mM DetaNONOate, 24 hours", "procedure": "FIG. 2 is a set of images illustrating the finding that 24 hours of treatment with 0.1 mM DetaNONOate (NO donor) increased Fas receptors on the surface of human aortic SMCs dramatically. Blue=DAPI nuclei, red=Fas receptor. Scale bar: 50 μm.\nBoth local delivery of FasL, and increasing the Fas receptors on the surface of the target cells, can increase the efficiency of FasL-mediated apoptosis. Nitric oxide (NO) is known to increase surface Fas receptors on vascular SMCs (Fukuo et al., Hypertension, 1996. 27(3 Pt 2): p. 823-6; Boyle, Weissberg, and Bennett, Arterioscler Thromb Vasc Biol, 2002. 22(10): p. 1624-30). […] After 24 hours of treatment with DetaNONOate, Fas receptor expression on SMCs was increased (red stain, FIG. 2, right panel)."}, "[3]": {"system": "human umbilical vein endothelial cell (HUVEC)", "test": "EC viability: HUVEC cell number, apoptosis, proliferation", "procedure": "Next, the effect of FasL and NO donor combinations on EC viability was tested."}}}
{"smiles": "NCCN(CCN)N(O)N=O", "note": "[DetaNONOate, 2,2′-(2-Hydroxy-2-nitrosohydrazinylidene)bis-ethanamine]", "values": [{"measurement": "death of porcine SMCs", "setting": "pig aortic SMCs", "result": "< 15", "unit": "%"}, {"measurement": "death of human SMCs", "setting": "human aortic SMCs [1]", "result": "< 15", "unit": "%"}, {"measurement": "Fas receptor expression on SMCs", "setting": "human aortic SMCs [2]", "result": "increased"}, {"measurement": "EC viability", "setting": "[3]; DetaNONOate 0.2 mM", "result": "negatively affected EC viability"}, {"measurement": "HUVEC cell number, rates of apoptosis or proliferation", "setting": "[3]; DetaNONOate alone 0.1 mM, absence of FasL, 96 hours", "result": "did not affect"}]}
